Results: PubChem BioAssay AID2060619 (Molecular Pharmacology Branch, DTP, NCI, 2025)
Values joined by “and” are separate entries in the source; they are usually repeats but may differ in a detail not shown here. Equal values may be shown once.

Test system: 323965-272-R-J2-PDC complex spheroid viability
Assay: Anticancer human tumor 323965-272-R-J2-PDC patient-derived pancreatic carcinoma cell line growth inhibition [CLK]
Conditions: for viability, T/C: stronger effect = lower value
Description: A high-throughput screen of multi-cell type tumor spheroids was designed to identify active combinations of […] and targeted small molecules. Complex spheroids include a stromal component modeled by human endothelial cells (HUVEC) and fibroblasts modeled by human mesenchymal stem cells (MSCs). The concentration ranges selected for each drug and investigational agent were based upon clinically achievable concentrations if the clinical Cmax of the agent was known.
Compounds. The drugs and investigational agents: cirtuvivint (SM08502; NSC835563), CC-671 (NSC850746), vemurafenib (NSC761431), tapotoclax (NSC804041), sotorasib (NSC818433), adagrasib (NSC831453), MRTX-1133 (NSC836407), BAY2416964 (NSC825713), copanlisib (NSC816437), inavolisib (NSC800729), abemaciclib (NSC768073), osimertinib (NSC779217), entinostat (NSC756642), eltanexor (KPT-8602, NSC794443), venetoclax (NSC766270), ceralasertib (NSC777638), bortezomib (NSC756655), olaparib (NSC753686), talazoparib (NSC767125), alisertib (NSC759677), peposertib (NSC802822), gemcitabine (NSC613327), 5-fluorouracil (NSC19893), SN-38 (NSC673596), oxaliplatin (NSC266046), paclitaxel (NSC125973), and doxorubicin (NSC123127), were obtained from the National Cancer Institute (NCI) Developmental Therapeutics Program Chemical Repository. The FDA-approved anticancer drug set is available from the Developmental Therapeutics Program at https://dtp.cancer.gov/organization/dscb/obtaining/available plates.htm. […] The stock solutions were prepared in dimethyl sulfoxide (DMSO, Sigma-Aldrich, St. Louis, MO, cat. D2650), except for the platinum complexes which were prepared in saline (Quality Biological, Gaithersburg, MD, cat. 114-055-101), at 800-fold the tested concentration and stored at -70 degrees C prior to their use. All drugs and investigational agents were tested over a range starting from a high concentration at or near the clinical Cmax and decreasing in half-log increments. If the clinical Cmax for an agent had not been determined, the highest concentration tested was 10 microM.
Cell Culture. All cells were maintained in an incubator at 37 degrees C and 5% CO2 with 95% humidity. The PDC lines were cultured according to standard operating procedures established by the NCI PDMR. Briefly, all PDCs were thawed and cultured in Matrigel-coated flasks prepared with a working solution of 1X Ham's F-12 nutrient mix, without supplementation (Invitrogen, Waltham, MA, cat. 11765054), 100 U/mL penicillin-streptomycin (Invitrogen, cat. 15140122), and 2.5% Matrigel (Corning Inc., Corning, NY, cat. 354248) for the first three passages. The 947758-054-R-J2-PDC line was cultured in 6B/Colon 1A media, which includes advanced DMEM/F-12 (Thermo Fisher Scientific, cat. 12634028), 10 mM HEPES (Thermo Fisher Scientific, cat. 15630080), 1X GlutaMAX supplement (Thermo Fisher Scientific, cat. 35050061), 0.1 mg/mL primocin (InvivoGen, cat. ant-pm-2), 10% defined fetal bovine serum, heat inactivated (HyClone Laboratories Inc., cat. SH30070.03HI), 1.25 mM N-Acetyl-L-cysteine (Sigma-Aldrich, cat. A9165), 10 mM nicotinamide (Sigma-Aldrich, cat. N0636), 1X B-27 supplement (Thermo Fisher Scientific, cat. 17504044), 1X N-2 supplement (Thermo Fisher Scientific, cat. 17502048), and 10 microM Y-27632 dihydrochloride (Tocris Bioscience, cat. 1254). The 876862-298-R-J1-PDC was cultured in 6E media, which includes all 6B/Colon 1A media components plus 50% L-WRN conditioned media (ATCC, cat. CRL-3276), 50 ng/mL recombinant human EGF recombinant protein (hEGF; Thermo Fisher Scientific, cat. PHG0311), 10 ng/mL recombinant human fibroblast growth factor 10 (hGFG-10; PeproTech, cat. 100-26), 1 ng/mL recombinant human fibroblast growth factor 2 (hFGF-2; PeproTech, cat. 100-18B), and 1 µM prostaglandin E2 (PGE2; Tocris, cat. 2296). The 227483-062-R1-J1-PDC line was cultured in Panc media, containing all 6E components except hFGF-2, with the addition of 500 nM SB-431542 (Selleckchem, cat. S1067) and 10 nM gastrin (Tocris, cat. 3006). […]

[1] = curve of first compound, second compound 0.0316 µM
[2] = curve of first compound, second compound 0.1 µM
[3] = curve of first compound, second compound 0.316 µM
[4] = curve of first compound, second compound 1 µM
[5] = curve of first compound, second compound 3.16 µM
[6] = curve of first compound, second compound 10 µM
[7] = second compound 0.0316 µM, first compound 0.00316 µM
[8] = second compound 0.0316 µM, first compound 0.01 µM
[9] = second compound 0.0316 µM, first compound 0.0316 µM
[10] = second compound 0.0316 µM, first compound 0.1 µM
[11] = second compound 0.1 µM, first compound 0.00316 µM
[12] = second compound 0.1 µM, first compound 0.01 µM
[13] = second compound 0.1 µM, first compound 0.0316 µM
[14] = second compound 0.1 µM, first compound 0.1 µM
[15] = second compound 0.316 µM, first compound 0.00316 µM
[16] = second compound 0.316 µM, first compound 0.01 µM
[17] = second compound 0.316 µM, first compound 0.0316 µM
[18] = second compound 0.316 µM, first compound 0.1 µM
[19] = second compound 1 µM, first compound 0.00316 µM
[20] = second compound 1 µM, first compound 0.01 µM
[21] = second compound 1 µM, first compound 0.0316 µM
[22] = second compound 1 µM, first compound 0.1 µM
[23] = second compound 3.16 µM, first compound 0.00316 µM
[24] = second compound 3.16 µM, first compound 0.01 µM
[25] = second compound 3.16 µM, first compound 0.0316 µM
[26] = second compound 3.16 µM, first compound 0.1 µM
[27] = second compound 10 µM, first compound 0.00316 µM
[28] = second compound 10 µM, first compound 0.01 µM
[29] = second compound 10 µM, first compound 0.0316 µM
[30] = second compound 10 µM, first compound 0.1 µM
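Note: spheroids exposed to agents for seven days before readout.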
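Throughout, for viability, T/C: percent of DMSO vehicle control wells so 100% = untreated growth.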

`CC1(C)CCC(CN2CCN(c3ccc(C(=O)NS(=O)(=O)c4ccc(NCC5CCOCC5)c([N+](=O)[O-])c4)c(Oc4cnc5[nH]ccc5c4)c3)CC2)=C(c2ccc(Cl)cc2)C1` was tested, and the viability, T/C (compound 0.0316 µM) was 97.7% and 104%, the viability, T/C (compound 0.1 µM) was 103% and 96.6% and the viability, T/C (compound 0.316 µM) was 103% and 100%. The viability, T/C (compound 1 µM) was 95.6% and 102%, the viability, T/C (compound 3.16 µM) was 93.1% and 89.5% and the viability, T/C (compound 10 µM) was 6.41% and 8.48%. The IC50 (curve of compound) was 5.61 µM and 5.54 µM.

Molecule `Cn1ncnc1[C@H]1c2n[nH]c(=O)c3cc(F)cc(c23)N[C@@H]1c1ccc(F)cc1` + CNC(=O)c1ccc(Nc2nc(OC3CCCC3)c3c(-c4ccc5nc(C)oc5c4)c[nH]c3n2)c(OC)c1 has an IC50 [1] of over 0.1 µM, an IC50 [2] of over 0.1 µM and an IC50 [3] of over 0.1 µM. For the same molecule, the IC50 [4] was under 0.000316 µM, the IC50 [5] was under 0.000316 µM and the IC50 [6] was under 0.000316 µM. The viability, T/C (second compound 0.0316 µM, first compound 0.000316 µM) was 126%, the viability, T/C (second compound 0.0316 µM, first compound 0.001 µM) was 118% and the viability, T/C [7] was 104%. It also gave a viability, T/C [8] of 110%, a viability, T/C [9] of 86.8% and a viability, T/C [10] of 97.1%. It also gave a viability, T/C (second compound 0.1 µM, first compound 0.000316 µM) of 86.2%, a viability, T/C (second compound 0.1 µM, first compound 0.001 µM) of 75.3% and a viability, T/C [11] of 78.9%. For the same molecule, the viability, T/C [12] was 85.3%, the viability, T/C [13] was 76.1% and the viability, T/C [14] was 66%. It also gave a viability, T/C (second compound 0.316 µM, first compound 0.000316 µM) of 69.6%, a viability, T/C (second compound 0.316 µM, first compound 0.001 µM) of 66.7% and a viability, T/C [15] of 55.5%. The viability, T/C [16] was 67.8%, the viability, T/C [17] was 70% and the viability, T/C [18] was 51.6%. For the same molecule, the viability, T/C (second compound 1 µM, first compound 0.000316 µM) was 41.3%, the viability, T/C (second compound 1 µM, first compound 0.001 µM) was 45.5% and the viability, T/C [19] was 48.5%. For the same molecule, the viability, T/C [20] was 38.3%, the viability, T/C [21] was 52% and the viability, T/C [22] was 43.4%. The viability, T/C (second compound 3.16 µM, first compound 0.000316 µM) was 36.7%, the viability, T/C (second compound 3.16 µM, first compound 0.001 µM) was 47.2% and the viability, T/C [23] was 42.4%. The viability, T/C [24] was 43.9%, the viability, T/C [25] was 51.5% and the viability, T/C [26] was 43.3%. The viability, T/C (second compound 10 µM, first compound 0.000316 µM) was 37.1%, the viability, T/C (second compound 10 µM, first compound 0.001 µM) was 36.6% and the viability, T/C [27] was 42.6%. It also gave a viability, T/C [28] of 45.7%, a viability, T/C [29] of 43.1% and a viability, T/C [30] of 43.1%.

With `O=C(c1cc(Cc2n[nH]c(=O)c3ccccc23)ccc1F)N1CCN(C(=O)C2CC2)CC1` the viability, T/C (compound 0.0316 µM) was 105% and 107%, the viability, T/C (compound 0.1 µM) was 103% and 102% and the viability, T/C (compound 0.316 µM) was 100% and 98.1%. The viability, T/C (compound 1 µM) was 103% and 90.2%, the viability, T/C (compound 3.16 µM) was 108% and 107% and the viability, T/C (compound 10 µM) was 84.3% and 81.5%. It also gave an IC50 (curve of compound) of over 10 µM.

`COc1c(OCCCN2CCOCC2)ccc2c3n(c(=NC(=O)c4cnc(N)nc4)nc12)CCN3` + CN1CCN(c2cc(C(=O)Nc3cc4cc(-c5cnn(C)c5)ccc4cn3)ccn2)CC1 showed an IC50 [1] of 0.0401 µM, an IC50 [2] of 0.0187 µM and an IC50 [3] of under 0.00316 µM. It also gave an IC50 [4] of under 0.00316 µM, an IC50 [5] of under 0.00316 µM and an IC50 [6] of under 0.00316 µM. The viability, T/C [7] was 85.5%, the viability, T/C [8] was 77.1% and the viability, T/C [9] was 50%. The viability, T/C [10] was 39.6%, the viability, T/C (second compound 0.0316 µM, first compound 0.316 µM) was 28.8% and the viability, T/C (second compound 0.0316 µM, first compound 1 µM) was 25.9%. It also gave a viability, T/C [11] of 64.5%, a viability, T/C [12] of 63% and a viability, T/C [13] of 39.3%. The viability, T/C [14] was 26%, the viability, T/C (second compound 0.1 µM, first compound 0.316 µM) was 21.4% and the viability, T/C (second compound 0.1 µM, first compound 1 µM) was 19.3%. For the same molecule, the viability, T/C [15] was 23.6%, the viability, T/C [16] was 21.5% and the viability, T/C [17] was 15.9%. It also gave a viability, T/C [18] of 15.7%, a viability, T/C (second compound 0.316 µM, first compound 0.316 µM) of 12.2% and a viability, T/C (second compound 0.316 µM, first compound 1 µM) of 11.9%. The viability, T/C [19] was 3.49%, the viability, T/C [20] was 2.87% and the viability, T/C [21] was 2.38%. For the same molecule, the viability, T/C [22] was 2.22%, the viability, T/C (second compound 1 µM, first compound 0.316 µM) was 1.51% and the viability, T/C (second compound 1 µM, first compound 1 µM) was 0.92%. The viability, T/C [23] was 3.25%, the viability, T/C [24] was 4.48% and the viability, T/C [25] was 3.03%. For the same molecule, the viability, T/C [26] was 1.39%, the viability, T/C (second compound 3.16 µM, first compound 0.316 µM) was 1.26% and the viability, T/C (second compound 3.16 µM, first compound 1 µM) was 0.84%. For the same molecule, the viability, T/C [27] was 4.13%, the viability, T/C [28] was 3.87% and the viability, T/C [29] was 3.7%. It also gave a viability, T/C [30] of 2.13%, a viability, T/C (second compound 10 µM, first compound 0.316 µM) of 1.69% and a viability, T/C (second compound 10 µM, first compound 1 µM) of 2.03%.

For `Nc1ccn(C2OC(CO)C(O)C2(F)F)c(=O)n1` (configuration not stated), the viability, T/C (compound 0.0316 µM) was 30.7% and 33.9%, the viability, T/C (compound 0.1 µM) was 35.3% and 38.5% and the viability, T/C (compound 0.316 µM) was 30% and 29.5%. The viability, T/C (compound 1 µM) was 37.3% and 32.3%, the viability, T/C (compound 3.16 µM) was 32.7% and 31.5% and the viability, T/C (compound 10 µM) was 28.6% and 33.3%. It also gave an IC50 (curve of compound) of under 0.0316 µM.

`Cn1ncnc1[C@H]1c2n[nH]c(=O)c3cc(F)cc(c23)N[C@@H]1c1ccc(F)cc1` was tested, and the viability, T/C (compound 0.000316 µM) was 108% and 106%, the viability, T/C (compound 0.001 µM) was 108% and 97.8% and the viability, T/C (compound 0.00316 µM) was 101% and 105%. The viability, T/C (compound 0.01 µM) was 104% and 99.3%, the viability, T/C (compound 0.0316 µM) was 114% and 94.7% and the viability, T/C (compound 0.1 µM) was 83.6% and 74.6%. It also gave an IC50 (curve of compound) of over 0.1 µM.
